From US20170190671A1, “BIS(ARYL)CATECHOL DERIVATIVES AS HERBICIDES” (E I DU PONT DE NEMOURS AND COMPANY, priority 2014, published 2017)

What was measured:
Assay type in all cases: in vivo
[1] = system: giant foxtail (Setaria faberii); experiment: Test C postemergence; conditions: scale 0 to 100
Method in brief: (§1)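 Treatment is preemergence to seeds in a loam and sand soil, or postemergence to plants 2 to 18 cm high in a peat moss-based medium. The compound is delivered in a non-phytotoxic solvent mixture including surfactant. Effects are judged by eye 13 to 15 days later on a 0 to 100 scale.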

[2] = system: morningglory (Ipomoea coccinea); experiment: Test C postemergence; conditions: scale 0 to 100
Method in brief: as §1

[3] = system: galium (catchweed bedstraw, Galium aparine); experiment: Test C postemergence; conditions: scale 0 to 100
Method in brief: as §1

[4] = system: sedge, umbrella (small-flower umbrella sedge, Cyperus difformis); experiment: Test B flooded paddy; conditions: 250 g ai/ha, Flood, 13 to 15 days, scale 0 (no effect) to 100 (complete control)
Method in brief: (§2)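 Under a constant 3 cm flood, test compounds went directly into the paddy water. Following 13 to 15 days of greenhouse growth, treated species and controls were compared by eye.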

[5] = system: rice (Oryza sativa); experiment: Test B flooded paddy; conditions: 250 g ai/ha, Flood, 13 to 15 days, scale 0 (no effect) to 100 (complete control)
Method in brief: as §2

[6] = system: barnyardgrass (Echinochloa crus-galli); experiment: Test B flooded paddy; conditions: 250 g ai/ha, Flood, 13 to 15 days, scale 0 (no effect) to 100 (complete control)
Method in brief: as §2

[7] = system: ducksalad (Heteranthera limosa); experiment: Test B flooded paddy; conditions: 250 g ai/ha, Flood, 13 to 15 days, scale 0 (no effect) to 100 (complete control)
Method in brief: as §2

[8] = system: pigweed (Amaranthus retroflexus); experiment: Test A postemergence; conditions: 0 to 100 scale
Method in brief: (§3)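 Pre- and postemergence greenhouse screen. Soil: loam + sand. Spray carrier: solvent mixture, non-phytotoxic, with surfactant. Post timing at 1–2 leaves, height 2–10 cm. Readout: visual injury on a 0–100 scale roughly 10 days after application, untreated plants as reference.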

[9] = system: ragweed (common ragweed, Ambrosia elatior); experiment: Test A postemergence; conditions: 0 to 100 scale
Method in brief: as §3

[10] = system: barnyardgrass (Echinochloa crus-galli); experiment: Test A postemergence; conditions: 0 to 100 scale
Method in brief: as §3

[11] = system: kochia (Kochia scoparia); experiment: Test A postemergence; conditions: 0 to 100 scale
Method in brief: as §3

[12] = system: blackgrass (Alopecurus myosuroides); experiment: Test A postemergence; conditions: 0 to 100 scale
Method in brief: as §3

[13] = system: giant foxtail (Setaria faberii); experiment: Test A postemergence; conditions: 0 to 100 scale
Method in brief: as §3

[14] = system: Italian ryegrass (Lolium multiflorum); experiment: Test A postemergence; conditions: 0 to 100 scale
Method in brief: as §3

[15] = system: corn (Zea mays); experiment: Test A postemergence; conditions: 0 to 100 scale
Method in brief: as §3

[16] = system: wheat (Triticum aestivum); experiment: Test A postemergence; conditions: 0 to 100 scale
Method in brief: as §3

[17] = system: galium (catchweed bedstraw, Galium aparine); experiment: Test A postemergence; conditions: 0 to 100 scale
Method in brief: as §3

[18] = system: pigweed (Amaranthus retroflexus); experiment: Test A preemergence; conditions: for Pigweed plant response rating: 0 to 100 scale (0 no effect, 100 complete control)
Method in brief: as §3

[19] = system: ragweed (common ragweed, Ambrosia elatior); experiment: Test A preemergence; conditions: for Ragweed plant response rating: 0 to 100 scale (0 no effect, 100 complete control)
Method in brief: as §3

[20] = system: barnyardgrass (Echinochloa crus-galli); experiment: Test A preemergence
Method in brief: as §3

[21] = system: kochia (Kochia scoparia); experiment: Test A preemergence; conditions: for Kochia plant response rating: 0 to 100 scale (0 no effect, 100 complete control)
Method in brief: as §3

[22] = system: giant foxtail (Setaria faberii); experiment: Test A preemergence; conditions: for Foxtail, Giant plant response rating: 0 to 100 scale (0 no effect, 100 complete control)
Method in brief: as §3

[23] = system: Italian ryegrass (Lolium multiflorum); experiment: Test A preemergence; conditions: for Ryegrass, Italian plant response rating: 0 to 100 scale (0 no effect, 100 complete control)
Method in brief: as §3

SMILES: Fc1cnc(Oc2c(F)cccc2Oc2ncc(Cl)cn2)nc1 [Compound 23]
- pest or weed control at 31 g/ha ([1]; Setaria faberi, post-emergence, 336 h, Postemergence, 31 g ai/ha, read-out: Plant response rating, Foxtail, Giant): 0%
- pest or weed control at 62 g/ha ([1]; Setaria faberi, post-emergence, 336 h, Postemergence, 62 g ai/ha, read-out: Plant response rating, Foxtail, Giant): 5%
- pest or weed control at 125 g/ha ([1]; Setaria faberi, post-emergence, 336 h, Postemergence, 125 g ai/ha, read-out: Plant response rating, Foxtail, Giant): 10%
- pest or weed control at 250 g/ha ([1]; Setaria faberi, post-emergence, 336 h, Postemergence, 250 g ai/ha, read-out: Plant response rating, Foxtail, Giant): 35%
- pest or weed control at 31 g/ha ([2]; Ipomoea, post-emergence, 336 h, Postemergence, 31 g ai/ha, read-out: Plant response rating, Morningglory): 60%
- pest or weed control at 62 g/ha ([2]; Ipomoea, post-emergence, 336 h, Postemergence, 62 g ai/ha, read-out: Plant response rating, Morningglory): 75%
- pest or weed control at 125 g/ha ([2]; Ipomoea, post-emergence, 336 h, Postemergence, 125 g ai/ha, read-out: Plant response rating, Morningglory): 85%
- pest or weed control at 250 g/ha ([2]; Ipomoea, post-emergence, 336 h, Postemergence, 250 g ai/ha, read-out: Plant response rating, Morningglory): 95%
- pest or weed control at 31 g/ha ([3]; Galium, post-emergence, 336 h, Postemergence, 31 g ai/ha, read-out: Plant response rating, Galium): 70%
- pest or weed control at 62 g/ha ([3]; Galium, post-emergence, 336 h, Postemergence, 62 g ai/ha, read-out: Plant response rating, Galium): 90%
- pest or weed control at 125 g/ha ([3]; Galium, post-emergence, 336 h, Postemergence, 125 g ai/ha, read-out: Plant response rating, Galium): 95%
- pest or weed control at 250 g/ha ([3]; Galium, post-emergence, 336 h, Postemergence, 250 g ai/ha, read-out: Plant response rating, Galium): 95%
- pest or weed control at 250 g/ha ([4]; Cyperus difformis, 336 h, read-out: Plant response rating, Sedge, Umbrella): 80%
- plant injury at 250 g/ha ([5]; Oryza sativa, 336 h, read-out: Plant response rating, Rice): 60%
- pest or weed control at 250 g/ha ([6]; Echinochloa crus-galli, 336 h, read-out: Plant response rating, Barnyardgrass): 60%
- pest or weed control at 250 g/ha ([7]; Heteranthera limosa, 336 h, read-out: Plant response rating, Ducksalad): 90%
- pest or weed control at 1000 g/ha ([8]; Amaranthus retroflexus, post-emergence, 240 h, 1000 g ai/ha, read-out: Plant response rating, Pigweed): 100%
- pest or weed control at 1000 g/ha ([9]; Ambrosia artemisiifolia, post-emergence, 240 h, 1000 g ai/ha, read-out: Plant response rating, Ragweed): 90%
- pest or weed control at 1000 g/ha ([10]; Echinochloa crus-galli, post-emergence, 240 h, 1000 g ai/ha, 0 no effect, 100 complete control, read-out: Plant response rating, Barnyardgrass): 90%
- pest or weed control at 1000 g/ha ([11]; Bassia scoparia, post-emergence, 240 h, 1000 g ai/ha, read-out: Plant response rating, Kochia): 90%
- pest or weed control at 1000 g/ha ([12]; Alopecurus myosuroides, post-emergence, 240 h, 1000 g ai/ha, read-out: Plant response rating, Blackgrass): 80%
- pest or weed control at 1000 g/ha ([13]; Setaria faberi, post-emergence, 240 h, 1000 g ai/ha, read-out: Plant response rating, Foxtail, Giant): 90%
- pest or weed control at 1000 g/ha ([14]; Lolium multiflorum, post-emergence, 240 h, 1000 g ai/ha, read-out: Plant response rating, Ryegrass, Italian): 90%
- Corn plant response rating (crop injury, 0 = no effect, 100 = complete kill) at 1000 g/ha ([15]; Zea mays, post-emergence, 240 h, 1000 g ai/ha): 50%
- plant injury at 1000 g/ha ([16]; Triticum aestivum, post-emergence, 240 h, 1000 g ai/ha, read-out: Plant response rating, Wheat): 60%
- pest or weed control at 1000 g/ha ([17]; Galium, post-emergence, 240 h, 1000 g ai/ha, read-out: Plant response rating, Galium): 90%
- pest or weed control at 1000 g/ha ([18]; Amaranthus retroflexus, pre-emergence, 240 h, 1000 g ai/ha, 0 to 100 scale, read-out: Plant response rating, Pigweed): 100%
- pest or weed control at 1000 g/ha ([19]; Ambrosia artemisiifolia, pre-emergence, 240 h, 1000 g ai/ha, 0 to 100 scale, read-out: Plant response rating, Ragweed): 100%
- pest or weed control at 1000 g/ha ([20]; Echinochloa crus-galli, pre-emergence, 240 h, 1000 g ai/ha, 0 to 100 scale, read-out: Plant response rating, Barnyardgrass): 100%
- pest or weed control at 1000 g/ha ([21]; Bassia scoparia, pre-emergence, 240 h, 1000 g ai/ha, 0 to 100 scale, read-out: Plant response rating, Kochia): 100%
- pest or weed control at 1000 g/ha ([22]; Setaria faberi, pre-emergence, 240 h, 1000 g ai/ha, 0 to 100 scale, read-out: Plant response rating, Foxtail, Giant): 100%
- pest or weed control at 1000 g/ha ([23]; Lolium multiflorum, pre-emergence, 240 h, 1000 g ai/ha, 0 to 100 scale, read-out: Plant response rating, Ryegrass, Italian): 80%

SMILES: Fc1ccc(F)c(Oc2ncc(C(F)(F)F)cn2)c1Oc1ncc(Cl)cn1 [Compound 25]
- Plant response rating, Foxtail, Giant ([1]; 8 g ai/ha, postemergence): 0
- Plant response rating, Foxtail, Giant ([1]; Postemergence, 16 g ai/ha): 0
- Plant response rating, Foxtail, Giant ([1]; Postemergence, 31 g ai/ha): 0
- Plant response rating, Foxtail, Giant ([1]; Postemergence, 62 g ai/ha): 5
- Plant response rating, Morningglory ([2]; 8 g ai/ha, postemergence): 20
- Plant response rating, Morningglory ([2]; Postemergence, 31 g ai/ha): 10
- Plant response rating, Morningglory ([2]; Postemergence, 62 g ai/ha): 15
- Plant response rating, Galium ([3]; 8 g ai/ha, postemergence): 50
- Plant response rating, Galium ([3]; Postemergence, 16 g ai/ha): 55
- Plant response rating, Galium ([3]; Postemergence, 31 g ai/ha): 80
- Plant response rating, Galium ([3]; Postemergence, 62 g ai/ha): 80
- Plant response rating, Sedge, Umbrella [4]: 75
- Plant response rating, Rice [5]: 20
- Plant response rating, Barnyardgrass [6]: 55
- Plant response rating, Ducksalad [7]: 90
- Plant response rating, Pigweed ([8]; 31 g ai/ha): 90
- Plant response rating, Pigweed ([8]; 125 g ai/ha): 100
- Plant response rating, Ragweed ([9]; 31 g ai/ha): 20
- Plant response rating, Ragweed ([9]; 125 g ai/ha): 30
- Plant response rating, Barnyardgrass ([10]; 31 g ai/ha): 10
- Plant response rating, Barnyardgrass ([10]; 125 g ai/ha): 60
- Plant response rating, Kochia ([11]; 31 g ai/ha): 50
- Plant response rating, Kochia ([11]; 125 g ai/ha): 70
- Plant response rating, Blackgrass ([12]; 31 g ai/ha): 60
- Plant response rating, Blackgrass ([12]; 125 g ai/ha): 70
- Plant response rating, Foxtail, Giant ([13]; 31 g ai/ha): 30
- Plant response rating, Foxtail, Giant ([13]; 125 g ai/ha): 50
- Plant response rating, Ryegrass, Italian ([14]; 31 g ai/ha): 0
- Plant response rating, Ryegrass, Italian ([14]; 125 g ai/ha): 50
- Plant response rating, Corn ([15]; 31 g ai/ha): 10
- Plant response rating, Corn ([15]; 125 g ai/ha): 30
- Plant response rating, Wheat ([16]; 31 g ai/ha): 0
- Plant response rating, Wheat ([16]; 125 g ai/ha): 30
- Plant response rating, Galium ([17]; 31 g ai/ha): 80
- Plant response rating, Galium ([17]; 125 g ai/ha): 90
- Pigweed plant response rating ([18]; 31 g ai/ha): 90
- Pigweed plant response rating ([18]; 125 g ai/ha): 100
- Ragweed plant response rating ([19]; 31 g ai/ha): 0
- Ragweed plant response rating ([19]; 125 g ai/ha): 0
- Barnyardgrass plant response rating ([20]; 31 g ai/ha, 0 to 100 scale (0 no effect, 100 complete control)): 10
- Plant response rating, Barnyardgrass ([20]; 125 g ai/ha, 0 to 100 scale): 70
- Kochia plant response rating ([21]; 31 g ai/ha): 50
- Kochia plant response rating ([21]; 125 g ai/ha): 100
- Foxtail, Giant plant response rating ([22]; 31 g ai/ha): 50
- Foxtail, Giant plant response rating ([22]; 125 g ai/ha): 90
- Ryegrass, Italian plant response rating ([23]; 31 g ai/ha): 10
- Ryegrass, Italian plant response rating ([23]; 125 g ai/ha): 40
